Assays:
murine MC/9 MCs = experiment: MC/9 - NIH3T3 transwell co-culture, mast cell degranulation by β-hexosaminidase release; type: cell-based; conditions: 24 hours treatment, then 30 minute sensitization with C48/80
Method: (§1) Given that both MCs and fibroblasts are present in the TME, the consequences of MC activation on myofibroblasts was explored using a co-culture assay in which murine MC/9 MCs and NIH3T3 myofibroblasts were separated by a transwell chamber with micropores that only allowed chemical communication (FIG. 13A). In this system, degranulation efficiency was determined by measuring the concentration of β-hexosaminidase (β-hex) in the supernatant. MC degranulation was induced through exposure to compound 48/80 (C48/80), which binds to the MRGPRB2 receptor (the orthologue of the human G-protein-coupled receptor MRGPRX2). […] Co-cultures treated with a vehicle control and Triton X-100 were used as internal assay control to evaluate background and maximum β-hex release, respectively. Transforming growth factor (TGF)-β1 was used as a fibroblast activator due to its capacity to induce a myofibroblast phenotype of the NIH3T3 cells. MC/9 cells were cultivated with NIH3T3 cells for 24 hours and then treated with either ketotifen or TGFβ for additional 24 hours in low serum medium, followed by a 30 minute sensitization with C48/80.

NIH3T3 cells = experiment: Myofibroblast differentiation in co-culture, αSMA and collagen I immunofluorescence; type: cell-based, murine
Method: as §1
To further explore the MC-fibroblast interaction, the differentiation process of NIH3T3 cells in the co-culture system was monitored by assaying levels of αSMA and collagen I, which are two markers of the myofibroblast phenotype, by immunofluorescence staining (FIG. 13C, FIG. 13D, and FIG. 13E).

MCA205 tumors = experiment: Ketotifen pretreatment with doxorubicin / anti-PD-L1, tumor growth; type: in vivo, mouse; conditions: anti-PD-L1 10 mg/kg, doxorubicin 5 mg/kg i.p. days 7, 10, 13, ketotifen 10 mg/kg daily
Text: Daily ketotifen continued until completion of doxorubicin-anti-PD-L1 combination treatment.

MCA205 cells = experiment: Re-challenge of long-term survivors with MCA205 cells; type: in vivo, mouse; conditions: re-challenge with 2.5×10^5 MCA205 cells s.c., 80 days after resection of primary tumors
Text: Since doxorubicin has potential to establish favorable immunogenic conditions within the TME, which could affect the efficacy of immunotherapy, it was investigated if this immune response is preserved against rechallenge of long-term survivors with the same cell line. Mice were considered long-term survivors if no tumor was detected 80 days after surgical resection of MCA205 primary tumors. Five long-term survivors from each treatment group were further re-challenged with 2.5×10^5 MCA205 cells injected subcutaneously into the flank region. Cells were prepared in 50 μl of PBS. Naïve mice were implanted in parallel as controls.

Compound | MC degranulation (β-hex release) (murine MC/9 MCs) | αSMA and collagen I protein expression (NIH3T3 cells; TGFβ alone) | αSMA and collagen I protein expression (NIH3T3 cells; TGFβ together with activated MCs) | tumor growth (relative growth, tumor mass day 16) (MCA205 tumors) | tumor development after re-challenge (mice out of five long-term survivors per group) (MCA205 cells)
TGFβ: fibroblast activator inducing a myofibroblast phenotype of the NIH3T3 cells | did not affect MC degranulation | no change was observed | significant increase |  | 
COc1cccc2c1C(=O)c1c(O)c3c(c(O)c1C2=O)C[C@@](O)(C(=O)CO)C[C@@H]3O[C@H]1C[C@H](N)[C@H](O)[C@H](C)O1 [doxorubicin] |  |  |  | Neither anti-PD-L1 nor doxorubicin monotherapies affected tumor growth | four mice

From patent US20250041286A1, “CANCER TREATMENT USING KETOTIFEN IN COMBINATION WITH A CHECKPOINT INHIBITOR” (Materia Therapeutics Inc., priority 2021, published 2025)
